# Measured values from publication PMC10592352 (Cell chemical biology, 2023).
# Tests used:
# [1] = ES1e mice, oral, 40 mg/kg; cited from earlier work
# [2] = Concentration reached in aqueous buffer for co-crystallization; assay type: physicochemical; conditions: aqueous buffer with 10% DMSO
# [3] = test system: Salmonella tester strains TA98 and TA100; experiment: Ames test; conditions: TA98 frameshift, TA100 base pair substitution
# [4] = test system: H82 small-cell lung cancer xenograft; experiment: Xenograft tumor growth; conditions: 40 mg/kg twice daily, oral
# [5] = test system: MDA-MB-468 breast cancer xenograft; experiment: Xenograft tumor growth; conditions: MDA-MB-468 xenograft, 40 mg/kg twice daily, oral
# [6] = test system: SK-N-BE(2)c neuroblastoma xenograft; experiment: Xenograft tumor growth; conditions: 40 mg/kg twice daily
# Oral PK study in mice = assay type: in vivo, ES1e/SCID mice
# [7] = GLP-controlled toxicity study; parameters: species or system dogs; conditions: dog, in vivo
# [8] = GLP-controlled toxicity study; parameters: species or system mice; conditions: mouse, in vivo
# [9] = test system: human PBMCs, small airway epithelial cells (hSEAC), neural crest stem cells (7SM0032); experiment: Growth of nonmalignant cells; assay type: cell-based
# PCNA = PCNA (Homo sapiens, UniProt P12004); experiment: Thermal denaturation; assay type: binding; conditions: dose-dependent, largest shift
# Chain of PCNA (P12004 whole entry): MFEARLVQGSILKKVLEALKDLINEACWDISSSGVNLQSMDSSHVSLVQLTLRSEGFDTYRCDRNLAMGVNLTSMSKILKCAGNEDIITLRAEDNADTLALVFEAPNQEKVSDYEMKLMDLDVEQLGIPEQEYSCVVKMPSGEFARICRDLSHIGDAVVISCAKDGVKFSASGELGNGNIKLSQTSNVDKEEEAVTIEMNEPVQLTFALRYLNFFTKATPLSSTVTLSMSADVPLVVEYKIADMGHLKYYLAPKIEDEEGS
# [10] = test system: more than 70 cancer cell lines; experiment: Growth inhibition across cancer cell lines; assay type: cell-based; conditions: read-out: median concentration to achieve 50% growth inhibition (GI50)
smiles,measurement,setting,value
O=C(CNC(=O)c1cccc2ccccc12)Nc1ccccc1Oc1ccccc1 [AOH1160],half-life,[1],3.4 h
COc1cccc(Oc2ccccc2NC(=O)[C@H](CCC(=O)O)NC(=O)c2cccc3ccccc23)c1 [AOH1996LE],concentration in aqueous buffer,[2],4000 µM
COc1cccc(Oc2ccccc2NC(=O)CNC(=O)c2cccc3ccccc23)c1 [AOH1996],mutagenicity in Ames test,[3],does not cause frameshift or base pair substitution
same,tumor burden versus vehicle,[4],significantly reduced the tumor burden
same,tumor burden versus vehicle,[5],significantly reduced the tumor burden
same,tumor burden versus vehicle,"[6]; SK-N-BE(2)c xenograft, oral",significantly reduced the tumor burden
same,death and body weight in tumor studies,[6]; xenograft-bearing ES1e/SCID mice,did not cause any death or significant weight loss
same,absorption into the circulatory system,"Oral PK study in mice; animals, data not shown",~90%
same,increase in area under the curve (AUC) versus AOH1160,"Oral PK study in mice; mice, 40 mg/kg",~4%
same,increase in half-life versus AOH1160,"Oral PK study in mice; mice, 40 mg/kg",~ 27%
same,increase in peak concentration (Cmax) versus AOH1160,"Oral PK study in mice; mice, 40 mg/kg",~40%
same,NOAEL at 4 weeks,[7],75 mg/kg
same,NOAEL at 4 weeks,[8],≥ 250 mg/kg
same,concentration not significantly toxic to nonmalignant cells,[9],at least 10 μM
same,shift of protein melting curves,PCNA,≤ 1.5 °C
same,GI50,[10],~300 nM
